What was measured:
Chilo suppressalis [1] = assay: Insecticidal activity against Chilo suppressalis (rice stem borer) third-instar larvae assessed as mortality after 5 days in presence of piperonyl butoxide; format: functional
Chilo suppressalis [2] = assay: Insecticidal activity against Chilo suppressalis (rice stem borer) third-instar larvae assessed as mortality at pI50 after 5 days in presence of piperonyl butoxide; format: functional; parameters: concentration or dose not given beside the values
[3] = 1-octanol-water partition co-efficient, log P of the compound; format: physicochemical
Chilo suppressalis [4] = assay: Insecticidal activity against Chilo suppressalis (rice stem borer) third-instar larvae assessed as mortality at pI50 after 5 days; format: functional
Chilo suppressalis [5] = assay: Inhibition of chitin synthesis in 20-hydroxyecdysone-stimulated Chilo suppressalis (rice stem borer) larval integument assessed as inhibition of N-acetyl-{1-14C]-glucosamine at pI50 after 72 hr by liquid scintillation counting; format: functional
Chilo suppressalis [6] = assay: Insecticidal activity against Chilo suppressalis (rice stem borer) third-instar larvae assessed as mortality after 5 days; format: functional

SMILES	pLD50 (Chilo suppressalis [1])	mortality (Chilo suppressalis [2]) [%]	logP [3]	mortality (Chilo suppressalis [4]) [%]	inhibition (INH) (Chilo suppressalis [5]) [%]	pLD50 (Chilo suppressalis [6])
COc1cccc(OC)c1C(=O)Nc1nnc(-c2ccc(F)cc2)s1	<5	14	3.5	–	–	–
COc1ccc(-c2nnc(NC(=O)c3c(OC)cccc3OC)s2)cc1	<5	0	3.56	–	–	–
O=C(Nc1nnc(-c2ccc(Cl)cc2)s1)c1ccccc1	–	–	–	0	10	<5.6
O=C(Nc1nnc(-c2ccc(Cl)cc2)s1)c1c(F)cccc1F	–	–	–	0	42	<4.6
O=C(Nc1nnc(-c2ccc(Cl)cc2)s1)c1c(Cl)cccc1Cl	–	–	–	5	–	<5
Cc1cccc(C)c1C(=O)Nc1nnc(-c2ccc(Cl)cc2)s1	–	–	–	–	–	5.48
COc1cccc(OC)c1C(=O)Nc1nnc(-c2ccc(Cl)cc2)s1	<5.96	–	3.96	–	–	5.96
O=C(Nc1nnc(-c2ccc(Cl)cc2)s1)c1ccccc1F	–	–	–	0	–	<4.6
O=C(Nc1nnc(-c2ccc(Cl)cc2)s1)c1ccccc1Cl	–	–	–	41	37	<4.6
O=C(Nc1nnc(-c2ccc(Cl)cc2)s1)c1ccccc1Br	–	–	–	0	32	<4.6
O=C(Nc1nnc(-c2ccc(Cl)cc2)s1)c1ccccc1I	–	–	–	5	17	<4.6
O=C(Nc1nnc(-c2ccc(Cl)cc2)s1)c1ccccc1C(F)(F)F	–	–	–	0	7	<4.6
O=C(Nc1nnc(-c2ccc(Cl)cc2)s1)c1ccccc1[N+](=O)[O-]	–	–	–	0	0	<4.6
Cc1ccccc1C(=O)Nc1nnc(-c2ccc(Cl)cc2)s1	–	–	–	0	–	<4.6
COc1ccccc1C(=O)Nc1nnc(-c2ccc(Cl)cc2)s1	–	–	–	–	–	5.96
CCOc1ccccc1C(=O)Nc1nnc(-c2ccc(Cl)cc2)s1	–	–	–	10	23	<5.6
CCN(CC)c1ccccc1C(=O)Nc1nnc(-c2ccc(Cl)cc2)s1	–	–	–	0	8	<5
COc1cccc(OC)c1C(=O)Nc1nnc(-c2ccccc2)s1	<5	0	3.5	–	–	–
COc1cccc(OC)c1C(=O)Nc1nnc(-c2ccc(C)cc2)s1	5	–	3.85	–	–	–
COc1cccc(OC)c1C(=O)Nc1nnc(-c2ccc(Br)cc2)s1	5.57	–	3.96	–	–	–
COc1cccc(OC)c1C(=O)Nc1nnc(-c2ccc([N+](=O)[O-])cc2)s1	<5	0	2.54	–	–	–
COc1cccc(OC)c1C(=O)Nc1nnc(-c2ccc(C#N)cc2)s1	–	–	3.14	–	–	–
CCOc1ccc(-c2nnc(NC(=O)c3c(OC)cccc3OC)s2)cc1	<5	6	3.75	–	–	–
O=C(NC(=O)c1c(F)cccc1F)Nc1ccc(Cl)cc1 [DIFLUBENZURON]	6.64	–	–	–	–	–
